PMC4640066 (Nature Communications, 2015)

Key:
[1] = system: γ-tubulin-dependent, centrosome-induced aster formation; test: Centrosome (sperm nuclei)-induced aster formation in Xenopus egg extracts; assay type: biochemical; settings: Xenopus extracts with sperm nuclei, 30 min at 20 °C
Protocol: Cytostatic factor (CSF)-arrested M phase Xenopus egg extracts (CSF extracts) were prepared. Briefly, unfertilized eggs were crushed by 10,700g centrifugation for 20 min. M phase extracts were mixed with 0.5 μM Cy3-labelled α/β-tubulin and various concentrations of compounds. After incubation for 30 min on ice, 15 μM RanQ69L, 200 sperm nuclei per μl or 5% DMSO were added and incubated for 30 min on ice. […]
(a) The efficiency of γ-tubulin depletion in Xenopus extracts was confirmed by immunoblotting. […] The depletion efficiency was calculated with ImageJ and was approx. 80%. […]
Scale bars, 5 μm. […] Aster formation was analyzed by fluorescence microscopy. […] Asters (Fig. 1e and Supplementary Figure 4c) in 10 randomly selected fields were counted per slide with a 10× objective; each sample had four slides. […]
Error bars represent S.D. Two-tailed, paired Student’s t-test was used to obtain P values. […] (e) Quantification of the radius of RanQ69L-induced asters from Fig. 1e and Supplementary Figure 4c. To gauge the impact upon the radius of the asters, n = 20 asters were quantified per sample per experiment. […]

[2] = system: HeLa cells; test: Anaphase spindle elongation, time-lapse anaphase duration; assay type: cell-based, human; settings: 30 μM, after MG132 washout, 1 μM reversine, control 18.6 min
Protocol: HeLa cells expressing mCherry-H2B and EGFP-α-tubulin, HeLa ‘Kyoto' cell line stably expressing CEP55-LAPtag (a kind gift from Dr A.A. Hyman) and HeLa cells expressing RFP-H2B and GFP-LifeAct (a kind gift from Dr J. Ellenberg) were cultured in DMEM+GlutaMAX (Gibco) supplemented with 10% FBS, 100 U ml^−1 penicillin, 100 μg ml^−1 streptomycin and 1 mM sodium pyruvate in a humidified atmosphere containing 5% CO2. To observe the transition from metaphase to anaphase, telophase and cytokinesis, cells were arrested at metaphase by sequential treatment of STLC and MG132. After MG132 removal by washing of cells with medium three times, the medium was changed to Live Cell Imaging Solution (Molecular Probes Life Technologies) supplemented as described above containing 1 μM of MPS1 inhibitor reversine and either DMSO or 30 μM of gatastatin. Time-lapse observation was performed at 37 °C using the DeltaVision Olympus IX71 microscope (Applied Precision) equipped with CoolSNAP HQ camera (Photometrics). Images were taken every 3 min with 12 z-stacks (1 μm per stack) for 3 h. The anaphase duration (between chromosome separation and start of midbody formation) was calculated.

[3] = target: T1, α/β-tubulin (Sus scrofa, UniProt P02550+P02554); test: Tryptophan-based drug-binding assay, α/β-tubulin; parameters: species or system porcine; settings: tryptophan fluorescence decrease; 1 μM protein; mean±s.d., three independent experiments
T1 construct: α/β-Tubulin was purified from porcine brain; from tissue; host or cells: porcine brain
T1 sequence (P02554 whole entry): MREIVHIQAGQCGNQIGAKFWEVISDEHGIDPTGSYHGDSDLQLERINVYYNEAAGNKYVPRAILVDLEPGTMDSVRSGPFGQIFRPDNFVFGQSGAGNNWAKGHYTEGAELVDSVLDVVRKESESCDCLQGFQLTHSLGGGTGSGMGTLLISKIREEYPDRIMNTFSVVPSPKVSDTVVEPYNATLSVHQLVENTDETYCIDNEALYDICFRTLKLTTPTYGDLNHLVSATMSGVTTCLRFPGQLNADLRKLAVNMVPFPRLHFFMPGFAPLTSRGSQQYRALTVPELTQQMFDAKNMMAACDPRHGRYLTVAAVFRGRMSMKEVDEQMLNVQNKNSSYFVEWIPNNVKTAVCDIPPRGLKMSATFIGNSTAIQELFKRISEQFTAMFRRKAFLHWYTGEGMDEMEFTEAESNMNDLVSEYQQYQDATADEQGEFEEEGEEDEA
T1 sequence (P02550 whole entry): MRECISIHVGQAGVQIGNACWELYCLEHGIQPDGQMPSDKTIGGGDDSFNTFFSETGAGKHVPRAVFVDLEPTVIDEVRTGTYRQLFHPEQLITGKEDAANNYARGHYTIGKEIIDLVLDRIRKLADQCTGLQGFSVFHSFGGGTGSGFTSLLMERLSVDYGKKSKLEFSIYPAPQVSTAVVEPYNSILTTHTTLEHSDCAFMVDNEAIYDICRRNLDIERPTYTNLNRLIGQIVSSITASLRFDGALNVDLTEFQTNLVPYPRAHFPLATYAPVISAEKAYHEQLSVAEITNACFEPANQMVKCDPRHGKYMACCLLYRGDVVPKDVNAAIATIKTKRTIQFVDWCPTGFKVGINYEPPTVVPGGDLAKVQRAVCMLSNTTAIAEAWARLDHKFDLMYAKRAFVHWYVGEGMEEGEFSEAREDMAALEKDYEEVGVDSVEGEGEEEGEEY
Protocol: γ-TuSC was purified as described. Briefly, γ-TuSC was expressed in HighFive cells and purified by sequential steps of Ni-NTA (Macherei-Nagel) purification, MonoQ column purification (GE Healthcare) and size exclusion (Superdex 200 column, GE Healthcare)[14]. α/β-Tubulin was purified from porcine brain through four cycles of polymerization and depolymerization using 1 M PIPES buffer (1 M PIPES-KOH, 1 mM EGTA, 1 mM MgCl2, pH 6.8) for effective removal of MT-associated proteins.
Gel filtration buffer for γ-tubulin purification (50 mM MES pH 6.6, 500 mM KCl, 5 mM MgCl2, 1 mM EGTA and 1 mM DTT) supplemented with 10% of glycerol was used as an assay buffer. γ-tubulin and α/β-tubulin were diluted in this assay buffer to reach a final protein concentration of 1 μM. A final concentration of 10 μM or 1 mM GTP was added to the samples. Proteins were incubated for 30 min with compounds (final DMSO concentration was 1%; 2% for AG1 and gatastatin). […] Dissociation constants were calculated from fitting curves of decreasing fluorescence (ΔFL) using the GraphPad Prizm software.

[4] = system: HeLa cells; test: γ-Tubulin localization on centrosomes; assay type: cell-based, human; settings: interphase and mitotic HeLa cells, 6 h
Protocol: Supplementary Figure 8. Impact of gatastatin on γ-tubulin localization in HeLa cells (a-d) γ-Tubulin localization on centrosome in gatastatin treated HeLa cells. (a) Gatatstatin-treated interphase cells (for 6 h) were analyzed. Red, green and blue in the merged image represent pericentrin, γ-tubulin and DNA, respectively. Scale bar, 5 µm. (b) The γ-tubulin signal around pericentrin in (a) was calculated using ImageJ software from 250 (control) and 166 (gatastatin) centrosomes. Error bars represent S.D. Two-tailed, un-paired Student’s t-test was used to obtain P values. (c) Gatatstatin-treated mitotic cells (for 6 h) were analyzed. Red, green and blue in the merged image represent pericentrin, γ-tubulin and DNA, respectively.
Scale bar, 5 µm. (d) The γ-tubulin signal on pericentrin in (c) was calculated using ImageJ software from 59 (control) and 98 (gatastatin) centrosomes. Error bars represent S.D. Two-tailed, un-paired Student’s t-test was used to obtain P values. γ-Tubulin and pericentrin antibodies were purchased from Sigma (GTU-88, Cat# T6557) and Abcam (Cat# ab4448), respectively.
(1 picture or pasted object on this page, not shown here)

Kd [3]: 42.5 ± 36.7 µM
Structure (SMILES): COc1cc2c(=O)c(-c3cc(OC)c4c(c3OC)OCO4)coc2cc1OCc1ccccc1 [Gatastatin, O^7-demethylbenzyl AG1]
Effect on centrosome-induced aster formation [1]: nearly completely inhibited
Anaphase duration [2]: 32.4 min
γ-Tubulin localization to centrosomes [4]: not affected
